Two molecules from paper PMC12631873 (Advanced Science, 2025) can be followed below.

Square brackets hold non-standard residues; d marks the D form. Peptide text beside a SMILES is read from it. * marks the point of attachment. X1 = CN1/C(=C/C=C/C=C/C2=[N+](CCCCCC(=O)*)c3ccc(S(=O)(=O)[O-])cc3C2(C)C)C(C)(C)c2cc(S(=O)(=O)O)ccc21; Hyp = O=C(O)[C@@H]1C[C@@H](O)CN1; Nlys = NCCCCNCC(=O)O; Ahx = NCCCCCC(=O)O

For data set [1], the system named is rat chondrocytes. As to the kind of experiment: CCK-8 cell viability assay on rat chondrocytes. The format is cell-based. The note with it: n = 4 wells. The procedure:
The cultures were maintained under standard conditions of 37 °C and 5% CO2. Chondrocytes collected from the articular cartilage of Sprague‐Dawley (SD) rats (purchased from Jennio Biotech, JNO‐720) were cultured in DMEM medium (Precell, PM150210). Human venous endothelial cells (HUVECs, purchased from iCell, iCell‐h110) were cultured in HUVEC medium (iCell, iCell‐h110‐001b). Both cells were seeded in 96‐well plates at a density of 5000 cells per well. The medium was supplemented with 10% fetal bovine serum (FBS, Precell, 164210) and penicillin‐streptomycin (1:100 diluted from a 100× stock solution, ThermoFisher, 15140122) to support cell growth and prevent bacterial contamination. […] Cell viability was assessed using the CCK‐8 assay kit (GLPBIO, GK10001−5) according to the manufacturer's instructions. After further incubation for 4 h, the optical density (OD) of the CCK‐8 solution was measured at 450 nm using a microplate reader (PerkinElmer, EnVision). […] The fluorescence images were obtained using an EVOS M7000 imaging system (Light cubes: GFP and RFP, Objective: 10×). A microscopic image was taken from the live (Calcein AM) staining of each well, and the total fluorescence signals were quantified for each image. The mean fluorescence level of each probe's group was normalized to the blank control group to estimate the relative cell viability. […]

A short description of data set [2]: Serum stability test (HPLC). The format is in vitro ADME, mouse. To be noted: 37 °C, HPLC UV 646 nm, n = 3; for degradation in serum (in words): 25% v/v mouse serum, 24 h and even after 48 h. The method, then:
Cy5‐labeled peptidomimetic probes (10 nmol) were incubated in 25% v/v mouse serum (Biosharp, BL1053A diluted in 1× PBS) at 37 °C. Aliquots (200 µL) were taken periodically at 0 (deadtime: ≈10 min), 2, 24, and 48 h, and added to 400 µL of 3.75% trichloroacetic acid in acetonitrile at 4 °C. Then, all samples were centrifuged to remove the precipitated serum proteins at 13800 g for 10 min at 4 °C. The supernatant (150 µL) was taken to mix with 550 µL of water (with 0.1% TFA) to centrifuge again at 2630 g for 5 min at 4 °C. Five microliter of the supernatant was mixed with 200 µL of water containing 0.1% TFA as the final samples for HPLC analysis at room temperature monitored by absorbance at 646 nm with the integral area of the intact fraction recorded. The peak area for the 10 min time point was designated as 100% intact, and each peak area at successive time points was normalized to the 10 min peak to calculate the percent compound remaining. All the experiments were repeated three times.

Regarding `CN1/C(=C/C=C/C=C/C2=[N+](CCCCCC(=O)NCCCCCC(=O)N[C@@H](CCCNC(=N)N)C(=O)N[C@@H](CCCNC(=N)N)C(=O)N[C@@H](CCCNC(=N)N)C(=O)N[C@@H](CCCNC(=N)N)C(=O)N[C@@H](CCCNC(=N)N)C(=O)N[C@@H](CCCNC(=N)N)C(=O)N[C@@H](CCCNC(=N)N)C(=O)N[C@@H](CCCNC(=N)N)C(N)=O)c3ccc(S(=O)(=O)[O-])cc3C2(C)C)C(C)(C)c2cc(S(=O)(=O)O)ccc21` [Cy5‐R8, reference compound], the “cytotoxicity to cultured chondrocytes (CCK8), in words” value in data set [1] (0-40 µM, 24 h) is recorded as “significant cytotoxicity”. Further, the “intact compound remaining after 2 h serum incubation” value in data set [2] (25% v/v mouse serum in 1× PBS, 10 nmol probe, peak area normalized to 10 min) is on record as “no intact R8 peptide remained”. For the same molecule, the “degradation in serum (in words)” value in data set [2] was “extremely unstable”.
Consider `CN1/C(=C/C=C/C=C/C2=[N+](CCCCCC(=O)NCCCCCC(=O)N(CCCCN)CC(=O)N3C[C@H](O)C[C@H]3C(=O)N(CCCCN)CC(=O)N3C[C@H](O)C[C@H]3C(=O)N(CCCCN)CC(=O)N3C[C@H](O)C[C@H]3C(=O)N(CCCCN)CC(=O)N3C[C@H](O)C[C@H]3C(=O)N(CCCCN)CC(=O)N3C[C@H](O)C[C@H]3C(=O)N(CCCCN)CC(=O)N3C[C@H](O)C[C@H]3C(=O)N(CCCCN)CC(=O)N3C[C@H](O)C[C@H]3C(N)=O)c3ccc(S(=O)(=O)[O-])cc3C2(C)C)C(C)(C)c2cc(S(=O)(=O)O)ccc21` [Cy5‐(NlysO)7] ({X1-Ahx}-[Nlys][Hyp][Nlys][Hyp][Nlys][Hyp][Nlys][Hyp][Nlys][Hyp][Nlys][Hyp][Nlys][Hyp]-NH2), for which the “cytotoxicity to chondrocytes over 72 h (CCK-8)” value in data set [1] (tested concentrations 0-40 µM, 72 h) is listed as “did not show cytotoxicity”. In data set [2], the “degradation in serum (in words)” value is recorded as “hardly degraded”.
